Assay results taken from patent US20080090805A1, “CB-1 MODULATING COMPOUNDS AND THEIR USE” (ACADIA PHARMACEUTICALS INC., priority 2005, published 2008).

System: NSA mice
Experiment: Hypothermia study (block of CP 55,940-induced hypothermia)
Assay type: in vivo
Parameters: Hypothermia 3 mg/kg / Hypothermia 0.3 mg/kg: unit not given here
Details: for Hypothermia ID50: block of CP 55,940-induced hypothermia
Procedure: . […] Core body temperatures were then obtained at various time points following CP 55,940 administration. Core body temperature (to the nearest 0.1° C.) was obtained by rectal probe.

Row | SMILES | Hypothermia 0.3 mg/kg | Hypothermia 3 mg/kg | Hypothermia ID50
1 | O=C(NCc1cccnc1)c1ccc2c(c1)N=C(c1ccc(Cl)c(Cl)c1)c1ccccc1S2 [drawing 1565] | 1 | 19 | –
2 | O=C(NCc1ccco1)c1ccc2c(c1)N=C(c1ccc(Cl)s1)c1ccccc1S2 [drawing 1557] | – | 66 | –
3 | O=C(NC1CCCCC1)c1ccc2c(c1)N=C(c1cccc(Cl)c1)c1ccccc1S2 [drawing 1574] | – | 74 | –
4 | CC(C)CNC(=O)c1ccc2c(c1)N=C(c1ccc(Cl)s1)c1ccccc1S2 [drawing 1578] | 23 | 73 | –
5 | O=C(NCCc1ccncc1)c1ccc2c(c1)N=C(c1ccc(Cl)s1)c1ccccc1S2 [drawing 1609] | – | 67 | –
6 | O=C(NC1CCCCC1)c1ccc2c(c1)N=C(c1cccc(F)c1)c1ccccc1S2 [drawing 1632] | – | 44 | –
7 | CCCCNC(=O)c1ccc2c(c1)N=C(c1ccc(Cl)cc1)c1ccccc1[S+]2[O-] (stereo not shown) [drawing 1619] | – | 31 | –
8 | CCCCNC(=O)c1ccc2c(c1)N=C(c1ccc(Br)cn1)c1ccccc1S2 [drawing 1555] | – | 80 | –
9 | O=C(NCc1cccc(Cl)c1)c1ccc2c(c1)N=C(c1ccc(Cl)cc1)c1ccccc1S2 [drawing 1614] | – | −16 | –
10 | CC(C)CNC(=O)c1ccc2c(c1)N=C(c1ccc(Cl)s1)c1ccc(F)cc1S2 [drawing 1644] | – | 12 | –
11 | O=C(NC1CCC(F)(F)CC1)c1ccc2c(c1)N=C(c1cccc(F)c1)c1ccccc1S2 [drawing 1608] | – | 46 | –
12 | O=C(NCCc1cccnc1)c1ccc2c(c1)N=C(c1ccc(Cl)c(Cl)c1)c1ccccc1S2 [drawing 1569] | – | 41 | –
13 | CCCCNC(=O)c1ccc2c(c1)N=C(c1ccc(Cl)c(F)c1)c1ccccc1S2 [drawing 1626] | – | 79 | –
14 | O=C(NCCCC(F)(F)F)c1ccc2c(c1)N=C(c1ccc(Cl)cc1F)c1ccccc1S2 [drawing 1552] | 24 | 55 | 1.3 mg/kg
15 | O=C(NCCc1cccnc1)c1ccc2c(c1)N=C(c1ccc(Cl)s1)c1ccccc1S2 [drawing 1585] | −14 | 76 | 1.7 mg/kg
16 | Cc1ccsc1C1=Nc2cc(C(=O)NCCCC(F)(F)F)ccc2Sc2ccccc21 [drawing 1598] | – | 24 | –
17 | O=C(NCc1cccnc1)c1ccc2c(c1)N=C(c1ccc(Br)cc1)c1ccccc1S2 [drawing 1613] | – | 2 | –
18 | CCCCNC(=O)c1ccc2c(c1)N=C(c1ccc(F)c(Cl)c1)c1ccccc1S2 | – | 94 | –
19 | O=C(NC1CCCCC1)c1ccc2c(c1)N=C(c1ccc(F)cc1)c1ccccc1S2 [drawing 1580] | 28 | 82 | –
20 | CCCCNC(=O)c1ccc2c(c1)N=C(c1ccc(Cl)cn1)c1ccccc1S2 [drawing 1595] | – | 53 | –
21 | Cc1ccc(CNC(=O)c2ccc3c(c2)N=C(c2ccc(Cl)s2)c2ccccc2S3)o1 [drawing 1594] | – | 16 | –
22 | O=C(NCCC(F)(F)F)c1ccc2c(c1)N=C(c1ccc(Cl)s1)c1ccccc1S2 [drawing 1624] | – | 37 | –

Row | SMILES | Hypothermia 0.3 mg/kg | Hypothermia 3 mg/kg | Hypothermia ID50
23 | O=C(NCc1ccc(F)cc1)c1ccc2c(c1)N=C(c1ccc(Cl)cc1)c1ccccc1S2 [drawing 1630] | 18 | 83 | 1.8 mg/kg
24 | O=C(NCc1cccc(Cl)c1)c1ccc2c(c1)N=C(N1CCC(F)(F)CC1)c1ccccc1S2 [drawing 1652] | −31 | 19 | –
25 | O=C(NN1CCCCC1)c1ccc2c(c1)N=C(c1ccc(F)cc1)c1ccccc1S2 [drawing 1582] | 7 | 87 | 0.96 mg/kg
26 | CC(C)CNC(=O)c1ccc2c(c1)N=C(c1ccc(Cl)cc1F)c1ccccc1S2 [drawing 1576] | 0 | 71 | –
27 | Cc1ccsc1C1=Nc2cc(C(=O)NN3CCCCCC3)ccc2Sc2ccccc21 [drawing 1597] | – | 18 | –
28 | O=C(NCc1cccc(Cl)c1)c1ccc2c(c1)N=C(c1ccc(Cl)cc1)c1cc(F)ccc1S2 [drawing 1583] | 14 | −4 | –
29 | CCCCNC(=O)c1cnc2c(n1)N=C(c1ccccc1)c1ccccc1S2 [drawing 1607] | – | 7 | –
30 | CC(C)CCNC(=O)c1ccc2c(c1)N=C(c1cccc(Cl)c1)c1ccccc1S2 [drawing 1564] | 35 | 64 | –
31 | O=C(NCCc1ccncc1)c1ccc2c(c1)N=C(c1ccc(Cl)c(Cl)c1)c1ccccc1S2 [drawing 1591] | – | 41 | –
32 | C[C@@H]1CCC[C@H](C)N1NC(=O)c1ccc2c(c1)N=C(c1cccc(F)c1)c1ccccc1S2 [drawing 1635] | – | 17 | –
33 | CC(C)CNC(=O)c1ccc2c(c1)N=C(c1ccc(Cl)cn1)c1ccc(F)cc1S2 [drawing 1625] | – | 27 | –
34 | CCCCNC(=O)c1ccc2c(c1)N=C(c1ccc(Cl)cc1)c1ccc(F)cc1S2 [drawing 1562] | 11 | 53 | –
35 | CC(C)CNC(=O)c1ccc2c(c1)N=C(c1cccc(Cl)c1)c1ccccc1S2 [drawing 1646] | – | 54 | –
36 | O=C(NCCCC(F)(F)F)c1ccc2c(c1)N=C(c1cccc(F)c1)c1ccccc1S2 [drawing 1606] | 11 | – | –
37 | O=C(NCc1ccccc1)c1ccc2c(c1)N=C(c1ccc(Cl)cc1)c1ccccc1S2 [drawing 1648] | – | 68 | –
38 | O=C(NCc1cccc(Cl)c1)c1ccc2c(c1)N=C(c1ccc(F)cc1)c1ccccc1S2 [drawing 1618] | 16 | 50 | –
39 | O=C(NCc1ccco1)c1ccc2c(c1)N=C(c1ccc(F)cc1)c1ccccc1S2 [drawing 1553] | −11 | 90 | 1.2 mg/kg
40 | CCCCNC(=O)c1ccc2c(c1)N=C(c1cccc(Cl)c1)c1cc(F)ccc1S2 [drawing 1579] | – | 8 | –
41 | O=C(NCCCC(F)(F)F)c1ccc2c(c1)N=C(c1ccc(Cl)s1)c1ccccc1S2 [drawing 1554] | 11 | 73 | 1.7 mg/kg
42 | Cc1ccsc1C1=Nc2cc(C(=O)NCc3cccs3)ccc2Sc2ccccc21 [drawing 1642] | – | 25 | –
43 | CCCCNC(=O)c1ccc2c(c1)N=C(c1cccc(F)c1)c1ccccc1S2 [drawing 1593] | – | 36 | –
